Results taken from ChEMBL document CHEMBL3098081, “Synthesis and anticancer potential of benzothiazole linked phenylpyridopyrimidinones and their diones as mitochondrial apoptotic inducers” (Bioorg Med Chem Lett, 2014).
pIC50: −log10 of the molar value.

Legend:
B16 = assay: Cytotoxicity against mouse B16 cells after 48 hrs by MTT assay; type: functional, cell-based; details: B16, 48 h
MCF7 = assay: cells; details: Homo sapiens, MCF7, 48 h
Description: Cytotoxicity against human MCF7 cells after 48 hrs by MTT assay

DU-145 = assay: Cytotoxicity against human DU145 cells after 48 hrs by MTT assay; type: functional, cell-based; details: DU-145, 48 h
[1] = Cytotoxicity against human ME180 cells after 48 hrs by MTT assay; type: functional, cell-based; details: ME-180, 48 h

SMILES: COc1cc(-n2c(=O)n(-c3nc4ccc([N+](=O)[O-])cc4s3)c(=O)c3cccnc32)cc(OC)c1OC
- pIC50 (B16): 4.70
- pIC50 (MCF7): < 4.70
- pIC50 (DU-145): < 4.70
- pIC50 [1]: < 4.70

SMILES: O=c1[nH]cc(F)c(=O)[nH]1 [FLUOROURACIL]
- pIC50 (B16): 5.38
- pIC50 (MCF7): 5.46
- pIC50 [1]: 5.31
